From publication PMC5218480 (PLoS ONE, 2017)

Test system: MV-4-11 cells
Experiment: Gene expression microarray analysis (Affymetrix PrimeView) and GSEA
Assay type: cell-based, human
Set-up: RFU PODN (11730768_x_at) / Fold change /veh PODN (11730768_x_at) / RFU LINC00158 (11744669_a_at) / Fold change /veh LINC00158 (11744669_a_at) / RFU DUSP10 (11751237_a_at) / Fold change /veh DUSP10 (11751237_a_at) / RFU ID3 (11757404_x_at) / Fold change /veh ID3 (11757404_x_at) / RFU PLEKHG5 (11737974_s_at) / Fold change /veh PLEKHG5 (11737974_s_at) / RFU LRRC4B (11730491_at) / Fold change /veh LRRC4B (11730491_at) / RFU GIMAP4 (11747438_a_at) / Fold change /veh GIMAP4 (11747438_a_at) / RFU KRT8 (11758183_x_at) / Fold change /veh KRT8 (11758183_x_at) / RFU CNN1 (11734310_a_at) / Fold change /veh CNN1 (11734310_a_at) / RFU VPS37D (11726825_at) / Fold change /veh VPS37D (11726825_at) / RFU C10orf10 (11716522_x_at) / Fold change /veh C10orf10 (11716522_x_at) / RFU KIR2DL2 /// KIR2DL4 /// KIR2DL5A /// KIR2DL5B /// KIR2DS1 /// KIR2DS2 /// KIR2DS3 /// KIR2DS4 /// KIR3DL3 /// KIR3DL3 /// KIR3DS1 (11738374_at) / Fold change /veh KIR2DL2 /// KIR2DL4 /// KIR2DL5A /// KIR2DL5B /// KIR2DS1 /// KIR2DS2 /// KIR2DS3 /// KIR2DS4 /// KIR3DL3 /// KIR3DL3 /// KIR3DS1 (11738374_at) / RFU C1QL1 (11718748_at) / Fold change /veh C1QL1 (11718748_at) / RFU TMPRSS4 (11747572_a_at) / Fold change /veh TMPRSS4 (11747572_a_at) / RFU HAMP (11756126_x_at) / Fold change /veh HAMP (11756126_x_at) / RFU RNFT2 (11725882_a_at) / Fold change /veh RNFT2 (11725882_a_at) / RFU NR4A2 (11747474_a_at) / Fold change /veh NR4A2 (11747474_a_at) / RFU ABCC12 (11746883_a_at) / Fold change /veh ABCC12 (11746883_a_at) / RFU TMEM136 (11760407_x_at) / Fold change /veh TMEM136 (11760407_x_at) / RFU CLDN22 /// WWC2 (11732394_at) / Fold change /veh CLDN22 /// WWC2 (11732394_at) / RFU HLA-DPB1 (11760878_x_at) / Fold change /veh HLA-DPB1 (11760878_x_at) / RFU SPINT1 (11716480_a_at) / Fold change /veh SPINT1 (11716480_a_at) / RFU GAP43 (11754022_s_at) / Fold change /veh GAP43 (11754022_s_at) / RFU A4GNT (11735810_at) / Fold change /veh A4GNT (11735810_at) / RFU PRB3 (11715151_x_at) / Fold change /veh PRB3 (11715151_x_at) / RFU TUBB4B (11761932_at) / Fold change /veh TUBB4B (11761932_at) / RFU CAPN14 (11732068_a_at) / Fold change /veh CAPN14 (11732068_a_at) / RFU TMCC2 (11721928_a_at) / Fold change /veh TMCC2 (11721928_a_at) / RFU IRGQ (11745062_a_at) / Fold change /veh IRGQ (11745062_a_at) / RFU FAM174B (11720279_a_at) / Fold change /veh FAM174B (11720279_a_at) / RFU TMPRSS4 (11748680_a_at) / Fold change /veh TMPRSS4 (11748680_a_at) / RFU FAM212B (11763350_a_at) / Fold change /veh FAM212B (11763350_a_at) / RFU PLEKHG5 (11743358_a_at) / Fold change /veh PLEKHG5 (11743358_a_at) / RFU ZSCAN30 (11745921_a_at) / Fold change /veh ZSCAN30 (11745921_a_at) / RFU CMKLR1 (11741424_a_at) / Fold change /veh CMKLR1 (11741424_a_at) / RFU LOC101060620 /// MAPK8IP1 (11723275_at) / Fold change /veh LOC101060620 /// MAPK8IP1 (11723275_at) / RFU SPTSSB (11747773_x_at) / Fold change /veh SPTSSB (11747773_x_at) / RFU PRSS12 (11739890_at) / Fold change /veh PRSS12 (11739890_at) / RFU BIN1 (11741810_x_at) / Fold change /veh BIN1 (11741810_x_at) / RFU WNT11 (11732464_a_at) / Fold change /veh WNT11 (11732464_a_at) / RFU C10orf10 (11716521_a_at) / Fold change /veh C10orf10 (11716521_a_at) / RFU C5orf56 (11738089_at) / Fold change /veh C5orf56 (11738089_at) / RFU CYB561 (11721691_x_at) / Fold change /veh CYB561 (11721691_x_at) / RFU ANKRD19P (11752326_a_at) / Fold change /veh ANKRD19P (11752326_a_at) / RFU OR2T12 /// OR2T33 /// OR2T8 (11738714_s_at) / Fold change /veh OR2T12 /// OR2T33 /// OR2T8 (11738714_s_at) / RFU VCAN (11748164_a_at) / Fold change /veh VCAN (11748164_a_at) / RFU JSRP1 (11732532_at) / Fold change /veh JSRP1 (11732532_at) / RFU KRTAP10-11 (11738290_x_at) / Fold change /veh KRTAP10-11 (11738290_x_at) / RFU MYO3A (11730013_a_at) / Fold change /veh MYO3A (11730013_a_at) / RFU EBF3 (11725865_a_at) / Fold change /veh EBF3 (11725865_a_at) / RFU CAMK2N1 (11719241_x_at) / Fold change /veh CAMK2N1 (11719241_x_at) / RFU C5orf56 (11738088_a_at) / Fold change /veh C5orf56 (11738088_a_at) / RFU OLFML3 (11715873_a_at) / Fold change /veh OLFML3 (11715873_a_at) / RFU LOC100653217 /// NTM (11731650_a_at) / Fold change /veh LOC100653217 /// NTM (11731650_a_at) / RFU MAPK11 (11762145_a_at) / Fold change /veh MAPK11 (11762145_a_at) / RFU FIZ1 (11724087_x_at) / Fold change /veh FIZ1 (11724087_x_at) / RFU OASL (11726364_x_at) / Fold change /veh OASL (11726364_x_at) / RFU SOX15 (11748057_x_at) / Fold change /veh SOX15 (11748057_x_at) / RFU CD79A (11719716_a_at) / Fold change /veh CD79A (11719716_a_at) / RFU HIST1H1D (11736915_at) / Fold change /veh HIST1H1D (11736915_at) / RFU CASKIN2 (11723855_a_at) / Fold change /veh CASKIN2 (11723855_a_at) / RFU LOC730098 (11760151_x_at) / Fold change /veh LOC730098 (11760151_x_at) / RFU OR4N2 (11742367_at) / Fold change /veh OR4N2 (11742367_at) / RFU PRRT2 (11749266_a_at) / Fold change /veh PRRT2 (11749266_a_at) / RFU SNX32 (11753110_a_at) / Fold change /veh SNX32 (11753110_a_at) / RFU CDHR5 (11726645_a_at) / Fold change /veh CDHR5 (11726645_a_at) / RFU RCAN1 (11760418_a_at) / Fold change /veh RCAN1 (11760418_a_at) / RFU FAM167A (11723789_a_at) / Fold change /veh FAM167A (11723789_a_at) / RFU FAM26E (11764081_at) / Fold change /veh FAM26E (11764081_at) / RFU ISYNA1 (11749810_s_at) / Fold change /veh ISYNA1 (11749810_s_at) / RFU ACY1 (11761880_at) / Fold change /veh ACY1 (11761880_at) / RFU 11764098_at / Fold change /veh 11764098_at / RFU SAMD14 (11745864_x_at) / Fold change /veh SAMD14 (11745864_x_at) / RFU NPB (11741838_a_at) / Fold change /veh NPB (11741838_a_at) / RFU TMPRSS6 (11731388_a_at) / Fold change /veh TMPRSS6 (11731388_a_at) / RFU KRTAP10-2 (11738614_at) / Fold change /veh KRTAP10-2 (11738614_at) / RFU ARHGAP8 /// PRR5-ARHGAP8 (11727945_x_at) / Fold change /veh ARHGAP8 /// PRR5-ARHGAP8 (11727945_x_at) / RFU KRTAP5-7 /// NADSYN1 (11734609_at) / Fold change /veh KRTAP5-7 /// NADSYN1 (11734609_at) / RFU RASL12 (11751679_a_at) / Fold change /veh RASL12 (11751679_a_at) / RFU CDKN2B (11736163_a_at) / Fold change /veh CDKN2B (11736163_a_at) / RFU PRF1 (11729649_at) / Fold change /veh PRF1 (11729649_at) / RFU, ZNF638 /// ZNF638-IT1 / Fold change vs veh, ZNF638 /// ZNF638-IT1 / RFU, PANK3 / Fold change vs veh, PANK3 / RFU, SH3YL1 / Fold change vs veh, SH3YL1 / RFU, ZEB2 / Fold change vs veh, ZEB2 / RFU, NRIP1 / Fold change vs veh, NRIP1 / RFU, PTTG1IP / Fold change vs veh, PTTG1IP / RFU, CAPN2 / Fold change vs veh, CAPN2 / RFU, MED14 / Fold change vs veh, MED14 / RFU, SNORA58 / Fold change vs veh, SNORA58 / RFU, C1orf63 / Fold change vs veh, C1orf63 / RFU, LRRFIP1 / Fold change vs veh, LRRFIP1 / RFU, NDUFAF7 / Fold change vs veh, NDUFAF7 / RFU, SLC12A2 / Fold change vs veh, SLC12A2 / RFU, IBTK / Fold change vs veh, IBTK / RFU, ESF1 / Fold change vs veh, ESF1 / Fold change vs veh, TMEM50B / RFU, TAOK1 / Fold change vs veh, TAOK1 / RFU, ACBD3 / Fold change vs veh, ACBD3 / RFU, TMA16 / Fold change vs veh, TMA16 / RFU, RWDD3 / Fold change vs veh, RWDD3 / RFU, BCAT1 / Fold change vs veh, BCAT1 / RFU, EDEM3 / Fold change vs veh, EDEM3 / RFU, TMEM33 / Fold change vs veh, TMEM33 / RFU, WDR75 / Fold change vs veh, WDR75 / RFU, AHCTF1 / Fold change vs veh, AHCTF1 / RFU, TFRC / Fold change vs veh, TFRC / RFU, ZDHHC17 / Fold change vs veh, ZDHHC17 / RFU, NOM1 / Fold change vs veh, NOM1 / RFU, ARL8B / Fold change vs veh, ARL8B / RFU, ZBTB11 / Fold change vs veh, ZBTB11 / RFU, TAMM41 / Fold change vs veh, TAMM41 / RFU, KIAA1704 /// LOC100996395 / Fold change vs veh, KIAA1704 /// LOC100996395 / RFU, ING1 / Fold change vs veh, ING1 / RFU, TRMT61B / Fold change vs veh, TRMT61B / RFU, FUBP3 / Fold change vs veh, FUBP3 / RFU, TP53 / Fold change vs veh, TP53 / RFU, TNKS2 / Fold change vs veh, TNKS2 / RFU, ZFP14 / Fold change vs veh, ZFP14 / RFU, ACTR2 / Fold change vs veh, ACTR2 / RFU, PPP3R1 / Fold change vs veh, PPP3R1 / RFU, PIK3R1 / Fold change vs veh, PIK3R1 / RFU, HNRNPA1 / Fold change vs veh, HNRNPA1 / RFU, RNF170 / Fold change vs veh, RNF170 / RFU, ZNF28 / Fold change vs veh, ZNF28 / RFU, RNGTT / Fold change vs veh, RNGTT / RFU, OGT / Fold change vs veh, OGT / RFU, BRD1 / Fold change vs veh, BRD1 / RFU, MARS / Fold change vs veh, MARS / RFU, ZNF655 / Fold change vs veh, ZNF655 / RFU, FAHD1 / Fold change vs veh, FAHD1 / RFU, BDP1 / Fold change vs veh, BDP1 / RFU, LRRCC1 / Fold change vs veh, LRRCC1 / RFU, ARID1A / Fold change vs veh, ARID1A / RFU, ZNF146 / Fold change vs veh, ZNF146 / RFU, ZNF330 / Fold change vs veh, ZNF330 / RFU, GPN3 / Fold change vs veh, GPN3 / RFU, C9orf123 / Fold change vs veh, C9orf123 / RFU, N4BP2L2 / Fold change vs veh, N4BP2L2 / RFU, ARFIP1 / Fold change vs veh, ARFIP1 / RFU, FAM179B / Fold change vs veh, FAM179B / RFU, BCL10 / Fold change vs veh, BCL10 / RFU, UHRF1BP1L / Fold change vs veh, UHRF1BP1L / RFU, BET1 / Fold change vs veh, BET1 / RFU, CNOT2 / Fold change vs veh, CNOT2 / RFU, ZNF268 / Fold change vs veh, ZNF268 / Fold change vs veh, ZNF507 / RFU, DGCR2 / Fold change vs veh, DGCR2 / RFU, WDSUB1 / Fold change vs veh, WDSUB1 / Fold change vs veh, HSP90B1 /// MIR3652 / RFU, ADSS / Fold change vs veh, ADSS / RFU, GK / Fold change vs veh, GK / RFU, ZNF148 / Fold change vs veh, ZNF148 / RFU, TAF9 / Fold change vs veh, TAF9 / RFU, SLC1A5 / Fold change vs veh, SLC1A5 / RFU, SLMO2 / Fold change vs veh, SLMO2 / RFU, ABCC4 / Fold change vs veh, ABCC4 / RFU, LOC101060439 /// RAP1B / Fold change vs veh, LOC101060439 /// RAP1B / RFU, RFX7 / Fold change vs veh, RFX7 / RFU, GTPBP10 / Fold change vs veh, GTPBP10 / RFU, CNEP1R1 / Fold change vs veh, CNEP1R1 / RFU, BIVM-ERCC5 /// ERCC5 / Fold change vs veh, BIVM-ERCC5 /// ERCC5 / RFU, ILF3 / Fold change vs veh, ILF3 / RFU 11762660_at / Fold change /veh 11762660_at / RFU VCAN (11757783_s_at) / Fold change /veh VCAN (11757783_s_at) / RFU DDX43 (11728927_at) / Fold change /veh DDX43 (11728927_at) / RFU KRT8 (11758188_x_at) / Fold change /veh KRT8 (11758188_x_at) / RFU NKD1 (11759106_at) / Fold change /veh NKD1 (11759106_at) / RFU SRD5A1 (11742802_a_at) / Fold change /veh SRD5A1 (11742802_a_at) / RFU TPSAB1 /// TPSB2 (11721975_s_at) / Fold change /veh TPSAB1 /// TPSB2 (11721975_s_at) / RFU GSTM3 (11746129_a_at) / Fold change /veh GSTM3 (11746129_a_at) / RFU IL23R (11737362_x_at) / Fold change /veh IL23R (11737362_x_at) / RFU TMEM51 (11727254_a_at) / Fold change /veh TMEM51 (11727254_a_at) / RFU PIWIL2 (11732686_x_at) / Fold change /veh PIWIL2 (11732686_x_at) / RFU ORM1 (11744905_x_at) / Fold change /veh ORM1 (11744905_x_at) / RFU CCDC152 (11743942_at) / Fold change /veh CCDC152 (11743942_at) / RFU ECM1 (11717891_a_at) / Fold change /veh ECM1 (11717891_a_at) / RFU IL23R (11748794_a_at) / Fold change /veh IL23R (11748794_a_at) / RFU TNFAIP8L3 (11732012_x_at) / Fold change /veh TNFAIP8L3 (11732012_x_at) / RFU MBOAT4 (11741988_at) / Fold change /veh MBOAT4 (11741988_at) / RFU 11764193_at / Fold change /veh 11764193_at / RFU TMEM53 (11763286_at) / Fold change /veh TMEM53 (11763286_at) / RFU MAGEB2 (11727129_at) / Fold change /veh MAGEB2 (11727129_at) / RFU TMEM200A (11744735_a_at) / Fold change /veh TMEM200A (11744735_a_at) / RFU CCDC152 (11751479_a_at) / Fold change /veh CCDC152 (11751479_a_at) / RFU FAM211A (11726209_a_at) / Fold change /veh FAM211A (11726209_a_at) / RFU RGS16 (11746705_a_at) / Fold change /veh RGS16 (11746705_a_at) / RFU VCAN (11755009_s_at) / Fold change /veh VCAN (11755009_s_at) / RFU RHOB (11743442_s_at) / Fold change /veh RHOB (11743442_s_at) / RFU RGS16 (11720943_a_at) / Fold change /veh RGS16 (11720943_a_at) / RFU RGS16 (11720944_at) / Fold change /veh RGS16 (11720944_at) / RFU, VPS4B / Fold change vs veh, VPS4B / RFU, CREB1 / Fold change vs veh, CREB1 / RFU, DNAJC13 / Fold change vs veh, DNAJC13 / RFU, GNAQ / Fold change vs veh, GNAQ / RFU, CDK5R1 / Fold change vs veh, CDK5R1 / RFU, ZRANB3 / Fold change vs veh, ZRANB3 / RFU, CUL4A / Fold change vs veh, CUL4A / RFU, CCNY / Fold change vs veh, CCNY / RFU, UFL1 / Fold change vs veh, UFL1 / RFU, COG3 / Fold change vs veh, COG3 / RFU, DIAPH2 / Fold change vs veh, DIAPH2 / RFU, SKA2 / Fold change vs veh, SKA2 / RFU, AFF3 / Fold change vs veh, AFF3 / RFU, LMF1 / Fold change vs veh, LMF1 / RFU, IPO11 / Fold change vs veh, IPO11 / RFU, DFFB / Fold change vs veh, DFFB / RFU, FOXP1 / Fold change vs veh, FOXP1 / RFU, CARD8 / Fold change vs veh, CARD8 / RFU, STRN3 / Fold change vs veh, STRN3 / RFU, ADK / Fold change vs veh, ADK / RFU, RASSF2 / Fold change vs veh, RASSF2 / RFU, WIPF1 / Fold change vs veh, WIPF1 / RFU, LARP1B / Fold change vs veh, LARP1B / RFU, RASA1 / Fold change vs veh, RASA1 / RFU, RB1 / Fold change vs veh, RB1 / RFU, PPFIA1 / Fold change vs veh, PPFIA1 / RFU, MAT2A / Fold change vs veh, MAT2A / RFU, CCT5 / Fold change vs veh, CCT5 / RFU, WDR92 / Fold change vs veh, WDR92 / RFU, CUX1 / Fold change vs veh, CUX1 / RFU, TTC7A / Fold change vs veh, TTC7A / RFU, TMEM135 / Fold change vs veh, TMEM135 / RFU, DEPTOR / Fold change vs veh, DEPTOR / RFU, CPM / Fold change vs veh, CPM / RFU, DNAJB6 / Fold change vs veh, DNAJB6 / RFU, CACNA2D3 / Fold change vs veh, CACNA2D3 / RFU, DTX4 / Fold change vs veh, DTX4 / RFU, TFCP2 / Fold change vs veh, TFCP2 / RFU, GMCL1 /// GMCL1P1 / Fold change vs veh, GMCL1 /// GMCL1P1 / RFU, AEBP2 / Fold change vs veh, AEBP2 / RFU, SNHG1 /// SNORD22 /// SNORD25 /// SNORD26 /// SNORD27 /// SNORD28 /// SNORD29 /// SNORD31 / Fold change vs veh, SNHG1 /// SNORD22 /// SNORD25 /// SNORD26 /// SNORD27 /// SNORD28 /// SNORD29 /// SNORD31 / Fold change (Aza/veh), C12orf56 (ProbeSet 11735607_a_at) / Fold change (ACY-1035/veh), C12orf56 (ProbeSet 11735607_a_at) / Fold change (Aza/veh), FGFR1OP (ProbeSet 11751329_s_at) / Fold change (ACY-1035/veh), FGFR1OP (ProbeSet 11751329_s_at) / Fold change (Aza/veh), VPS36 (ProbeSet 11739960_a_at) / Fold change (ACY-1035/veh), VPS36 (ProbeSet 11739960_a_at) / RFU SYPL1 (11715823_x_at) / Fold change /veh SYPL1 (11715823_x_at) / RFU IGFBP7 (11715501_s_at) / Fold change /veh IGFBP7 (11715501_s_at) / RFU REEP3 (11722064_at) / Fold change /veh REEP3 (11722064_at) / RFU IGLL1 (11728026_x_at) / Fold change /veh IGLL1 (11728026_x_at): dose or concentration left out as unconfirmed
Settings: MV-4-11 cells, 48 hours

## Nc1ncn([C@@H]2O[C@H](CO)[C@@H](O)[C@H]2O)c(=O)n1 [azacitidine]
  RFU NKD1 (11759106_at): 23.64 RFU
